{
  "source": "patent US20120164154A1",
  "about": "“METHOD FOR INCREASING INSULIN SENSITIVITY AND FOR TREATING AND PREVENTING TYPE 2 DIABETES” (priority 2002, published 2012)",
  "key": {"isolated soleus muscle": {"tested_on": "isolated soleus muscle", "test": "Basal and insulin-stimulated 2-deoxyglucose uptake in isolated soleus muscle", "parameters": "species or system mice", "conditions": "0.1 m-unit of insulin/ml, 2 h preincubation, 2-deoxyglucose uptake 15 min", "method": "(A) Representative immunoblot of GLUT4 protein expression along with combined densitometric analysis. Muscle from 3 SCD1+/+ and 3 SCD1−/− mice were pooled. Plasma membranes were prepared as described in Example 1. Equal amount of protein was separated by SDS-PAGE and immunoblotted with GLUT4 antibody. Experiment was repeated three times. Data are shown as means±SD. *P<0.05 vs controls. Nitrocellulose membrane was stripped and reprobed with GAPDH antibody to ensure equal loading of the protein. (B) Glucose uptake measured in vivo in soleus and gastrocnemius muscles. […] The 2-deoxyglucose uptake was calculated as the difference between the total muscle radioactivity and the radioactivity of the muscle extracellular space measured using [1-^3H] mannitol. […]\nDetermination of plasma membrane GLUT4 levels, glucose uptake and glucose oxidation. Muscle plasma membranes were prepared from muscle of SCD1−/− and SCD1+/+ mice and GLUT4 levels were determined as described in Agote, M. et al. (2001) Am. […] The scintillation cocktail was added and radioactivity was counted in a liquid scintillation counter. The 2-deoxyglucose (2-DG) uptake was calculated as the difference between the total muscle radioactivity and the radioactivity of the muscle extracellular space. […] Glucose oxidation was determined in thin slices (20-30 mg) of gastrocnemius muscle as described in Baque, S. et al. (2001) Am. […]"}, "Insulin tolerance test": {"test": "Insulin tolerance test", "type": "in vivo", "conditions": "SCD1-/- mice compared with wild-type mice", "text": "Animals and Diets. SCD1−/− mice in SV129 background were generated and genotyped as described in Miyazaki, M. et al. (2001) J. Nutr. 131, 2260-2268. The wild-type (SCD1+/+), heterozygous (SCD1+/−) and homozygous (SCD1−/−) mice are housed and bred in a pathogen-free barrier facility of the Department of Biochemistry (University of Wisconsin, Madison) operating at room temperature in a 12-h light/12-h dark cycle. The breeding of these animals was in accordance with the protocols approved by the animal care research committee of the University of Wisconsin. At 3 weeks of age, the mice were fed ad libitum a standard laboratory chow diet or a high-fat diet for 23 weeks. The high-fat diet contains 195 g/kg casein, 3 g/kg DL-methionine, 377 g/kg sucrose, 150 g/kg corn starch, 153 g/kg anhydrous milkfat, 10 g/kg corn oil, 1.5 g/kg cholesterol, 60.067 g/kg cellulose, 35 g/kg mineral mix AIN-76 (170915), 4 g/kg calcium carbonate, 10 g/kg vitamin mix Teklad (40060), 1.2 g/kg choline bitartrate, and 0.033 g/kg ethoxyquin (antioxidant). The weight of each mouse within each group was measured weekly; the data are presented as means±SD (n=8, P<0.001). The glucose tolerance and insulin tolerance were determined as described in Stoehr, J. P. et al. (2000) Diabetes 49, 1946-1954."}},
  "data": [
    {"substance": "insulin", "values": [
      {"measurement": "insulin-mediated glucose uptake (fold)", "setting": "isolated soleus muscle; isolated soleus muscle from SCD1+/+ mice", "value": 1.6, "unit": "fold"},
      {"measurement": "insulin-mediated glucose uptake (fold)", "setting": "isolated soleus muscle; isolated soleus muscle from SCD1-/- mice", "value": 2.1, "unit": "fold"},
      {"measurement": "glucose lowering effect of insulin", "setting": "Insulin tolerance test", "value": "greater in the SCD1−/− mice than wild-type mice"}
    ]}
  ]
}
